From ChEMBL document CHEMBL5131515, “Identification of Pyridinyltriazine Derivatives as Potent panFGFR Inhibitors against Gatekeeper Mutants for Overcoming Drug Resistance” (J Med Chem, 2022)

Assays:
[1] = Antiproliferative activity against mouse BaF3 cells assessed as cell growth inhibition by CellTiter-Glo assay
[2] = system: J82; assay: Antiproliferative activity against human J82 cells harboring FGFR3 K652E mutant assessed as cell growth inhibition by CellTiter-Glo assay; format: functional
[3] = system: AN3-CA; assay: Antiproliferative activity against human AN3-CA cells harboring FGFR2 K310R/N549K mutant assessed as cell growth inhibition by CellTiter-Glo assay; format: functional
[4] = system: BaF3; assay: cells; format: functional; settings: Mus musculus
[5] = system: BaF3; assay: Antiproliferative activity against mouse BaF3 cells harboring TEL-FGFR3 assessed as cell growth inhibition by CellTiter-Glo assay; format: functional
[6] = target: Fibroblast growth factor receptor 3 (Homo sapiens, UniProt P22607, V555M)
[7] = target: Fibroblast growth factor receptor 2 (Homo sapiens, UniProt P21802, N549H)
[8] = system: KMS-11; assay: Antiproliferative activity against human KMS-11 cells harboring FGFR3 Y373C mutant assessed as cell growth inhibition by CellTiter-Glo assay; format: functional
[9] = target: Fibroblast growth factor receptor 3 (Homo sapiens, UniProt P22607); assay: Inhibition of wild-type FGFR3 (unknown origin) by radiometric kinase activity assay
[10] = target: Fibroblast growth factor receptor 2 (Homo sapiens, UniProt P21802, V564F)
Description: Inhibition of FGFR2 V564F mutant (unknown origin) by radiometric kinase activity assay

[11] = system: Fibroblast growth factor receptor 2 (Homo sapiens), P21802 [V564F]; assay: Inhibition of FGFR2 V564F mutant (unknown origin) at 10 uM by radiometric kinase activity assay relative to control
[12] = system: Fibroblast growth factor receptor 3 (Homo sapiens), P22607 [V555M]; assay: Inhibition of FGFR3 V555M mutant (unknown origin) at 10 uM by radiometric kinase activity assay relative to control
[13] = target: Fibroblast growth factor receptor 3 (Homo sapiens, UniProt P22607, K650E)
[14] = target: Fibroblast growth factor receptor 4 (Homo sapiens, UniProt P22455); assay: Inhibition of wild-type FGFR4 (unknown origin) by radiometric kinase activity assay
[15] = system: BaF3; assay: Antiproliferative activity against mouse BaF3 cells harboring TEL-FGFR4 V550E mutant assessed as cell growth inhibition by CellTiter-Glo assay; format: functional
[16] = target: Fibroblast growth factor receptor 2 (Homo sapiens, UniProt P21802); assay: Inhibition of wild-type FGFR2 (unknown origin) by radiometric kinase activity assay
[17] = system: BaF3; assay: Antiproliferative activity against mouse BaF3 cells harboring TEL-FGFR4 N535K mutant assessed as cell growth inhibition by CellTiter-Glo assay; format: functional
[18] = target: Fibroblast growth factor receptor 3 (Homo sapiens, UniProt P22607, K650M)
Sequence of Fibroblast growth factor receptor 3 (Homo sapiens, UniProt P22607, K650M) (P22607 23-806 K650M limits assumed): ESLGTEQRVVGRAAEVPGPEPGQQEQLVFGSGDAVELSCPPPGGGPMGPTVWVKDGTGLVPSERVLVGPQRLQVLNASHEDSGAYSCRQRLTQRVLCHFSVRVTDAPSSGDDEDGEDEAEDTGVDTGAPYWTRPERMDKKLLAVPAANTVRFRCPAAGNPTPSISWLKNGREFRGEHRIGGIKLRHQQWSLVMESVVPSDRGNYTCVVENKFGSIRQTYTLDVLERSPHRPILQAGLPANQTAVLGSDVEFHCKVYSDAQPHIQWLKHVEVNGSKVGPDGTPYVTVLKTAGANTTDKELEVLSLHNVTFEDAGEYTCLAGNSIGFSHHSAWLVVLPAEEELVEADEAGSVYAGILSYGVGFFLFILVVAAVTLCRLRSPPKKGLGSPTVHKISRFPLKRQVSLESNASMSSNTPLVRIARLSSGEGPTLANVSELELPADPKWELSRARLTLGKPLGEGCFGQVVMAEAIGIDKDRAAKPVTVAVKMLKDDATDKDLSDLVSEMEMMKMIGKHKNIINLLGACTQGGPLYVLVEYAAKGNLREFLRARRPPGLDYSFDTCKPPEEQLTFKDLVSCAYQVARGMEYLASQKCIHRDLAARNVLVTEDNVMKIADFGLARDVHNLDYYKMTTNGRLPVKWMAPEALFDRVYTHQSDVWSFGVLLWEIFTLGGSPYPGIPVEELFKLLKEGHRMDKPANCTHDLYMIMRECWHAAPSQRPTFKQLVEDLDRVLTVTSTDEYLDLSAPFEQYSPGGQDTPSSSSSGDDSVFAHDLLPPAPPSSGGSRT

Sequence of Fibroblast growth factor receptor 2 (Homo sapiens), P21802 [V564F] (P21802 whole entry V564F): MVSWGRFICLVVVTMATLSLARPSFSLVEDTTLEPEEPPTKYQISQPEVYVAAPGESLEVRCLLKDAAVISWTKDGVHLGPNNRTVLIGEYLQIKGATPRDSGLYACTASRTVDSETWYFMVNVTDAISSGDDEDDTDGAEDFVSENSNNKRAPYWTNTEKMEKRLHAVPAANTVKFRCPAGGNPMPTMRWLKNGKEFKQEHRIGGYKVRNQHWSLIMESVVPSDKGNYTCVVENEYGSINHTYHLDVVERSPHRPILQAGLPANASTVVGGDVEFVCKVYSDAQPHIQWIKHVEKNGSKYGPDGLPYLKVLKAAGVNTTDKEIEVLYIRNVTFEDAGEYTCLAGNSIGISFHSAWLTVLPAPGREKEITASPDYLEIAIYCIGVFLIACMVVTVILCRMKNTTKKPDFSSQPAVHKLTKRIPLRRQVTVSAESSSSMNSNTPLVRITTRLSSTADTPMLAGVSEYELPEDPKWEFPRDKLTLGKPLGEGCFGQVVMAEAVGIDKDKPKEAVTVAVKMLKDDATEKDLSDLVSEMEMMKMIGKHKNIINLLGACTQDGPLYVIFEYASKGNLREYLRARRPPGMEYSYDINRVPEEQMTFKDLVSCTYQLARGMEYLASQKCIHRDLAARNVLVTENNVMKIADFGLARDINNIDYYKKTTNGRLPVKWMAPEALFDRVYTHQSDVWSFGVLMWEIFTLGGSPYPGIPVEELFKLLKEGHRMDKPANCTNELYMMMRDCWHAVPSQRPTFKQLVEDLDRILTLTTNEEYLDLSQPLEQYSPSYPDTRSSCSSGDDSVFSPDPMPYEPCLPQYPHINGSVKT
Sequence of Fibroblast growth factor receptor 3 (Homo sapiens, UniProt P22607, V555M) (P22607 23-806 V555M limits assumed): as the sequence (P22607 23-806 K650M limits assumed) above, with V533M, M628K counted along it
Sequence of Fibroblast growth factor receptor 3 (Homo sapiens), P22607 [V555M] (P22607 whole entry V555M): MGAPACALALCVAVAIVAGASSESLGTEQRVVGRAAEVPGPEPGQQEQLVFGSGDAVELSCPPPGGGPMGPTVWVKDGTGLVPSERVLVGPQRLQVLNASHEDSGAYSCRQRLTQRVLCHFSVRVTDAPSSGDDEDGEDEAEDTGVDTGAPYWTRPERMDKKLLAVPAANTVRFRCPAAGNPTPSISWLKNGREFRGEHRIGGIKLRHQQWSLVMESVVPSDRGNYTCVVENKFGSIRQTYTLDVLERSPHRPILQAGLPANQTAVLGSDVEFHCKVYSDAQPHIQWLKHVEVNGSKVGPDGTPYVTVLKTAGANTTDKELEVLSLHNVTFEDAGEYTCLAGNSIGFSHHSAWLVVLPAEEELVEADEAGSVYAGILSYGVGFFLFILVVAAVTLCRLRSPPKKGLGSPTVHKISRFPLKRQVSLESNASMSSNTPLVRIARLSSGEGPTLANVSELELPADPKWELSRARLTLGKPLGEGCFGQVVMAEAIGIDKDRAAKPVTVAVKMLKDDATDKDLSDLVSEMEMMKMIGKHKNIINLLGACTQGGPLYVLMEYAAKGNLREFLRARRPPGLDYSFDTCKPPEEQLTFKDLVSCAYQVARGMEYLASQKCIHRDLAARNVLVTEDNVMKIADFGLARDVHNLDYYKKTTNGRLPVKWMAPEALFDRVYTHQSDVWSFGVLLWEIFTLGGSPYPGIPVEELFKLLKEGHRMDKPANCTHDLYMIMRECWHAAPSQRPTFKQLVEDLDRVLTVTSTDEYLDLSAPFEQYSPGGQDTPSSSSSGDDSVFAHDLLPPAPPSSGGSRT
Sequence of Fibroblast growth factor receptor 3 (Homo sapiens, UniProt P22607) (P22607 whole entry): as the sequence (P22607 whole entry V555M) above, with M555V counted along it
Sequence of Fibroblast growth factor receptor 2 (Homo sapiens, UniProt P21802, N549H) (P21802 22-821 N549H limits assumed): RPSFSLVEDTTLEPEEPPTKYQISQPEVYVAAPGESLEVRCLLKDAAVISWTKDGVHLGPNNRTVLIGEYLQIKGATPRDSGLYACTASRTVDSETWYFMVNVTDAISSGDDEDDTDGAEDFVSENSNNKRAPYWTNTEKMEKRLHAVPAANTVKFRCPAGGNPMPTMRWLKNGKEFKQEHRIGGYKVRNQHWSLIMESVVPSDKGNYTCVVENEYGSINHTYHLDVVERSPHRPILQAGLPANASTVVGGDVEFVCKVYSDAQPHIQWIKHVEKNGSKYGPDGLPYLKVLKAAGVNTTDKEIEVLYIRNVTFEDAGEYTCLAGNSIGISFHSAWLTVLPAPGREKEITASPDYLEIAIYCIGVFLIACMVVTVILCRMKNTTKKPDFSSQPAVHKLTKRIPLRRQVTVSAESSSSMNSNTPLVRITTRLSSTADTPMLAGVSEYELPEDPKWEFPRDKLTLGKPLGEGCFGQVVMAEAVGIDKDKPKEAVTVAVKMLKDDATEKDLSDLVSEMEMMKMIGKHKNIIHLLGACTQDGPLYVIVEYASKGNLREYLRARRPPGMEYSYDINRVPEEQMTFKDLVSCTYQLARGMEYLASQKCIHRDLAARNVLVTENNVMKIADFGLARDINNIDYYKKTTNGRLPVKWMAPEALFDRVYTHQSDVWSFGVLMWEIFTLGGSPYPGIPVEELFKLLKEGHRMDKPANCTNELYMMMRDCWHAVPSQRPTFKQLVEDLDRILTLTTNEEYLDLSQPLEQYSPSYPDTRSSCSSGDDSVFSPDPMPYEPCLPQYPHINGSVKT
Sequence of Fibroblast growth factor receptor 2 (Homo sapiens, UniProt P21802, V564F) (P21802 22-821 V564F limits assumed): as the sequence (P21802 22-821 N549H limits assumed) above, with H528N, V543F counted along it
Sequence of Fibroblast growth factor receptor 3 (Homo sapiens, UniProt P22607, K650E) (P22607 23-806 K650E limits assumed): as the sequence (P22607 23-806 K650M limits assumed) above, with M628E counted along it
Sequence of Fibroblast growth factor receptor 4 (P22455 whole entry): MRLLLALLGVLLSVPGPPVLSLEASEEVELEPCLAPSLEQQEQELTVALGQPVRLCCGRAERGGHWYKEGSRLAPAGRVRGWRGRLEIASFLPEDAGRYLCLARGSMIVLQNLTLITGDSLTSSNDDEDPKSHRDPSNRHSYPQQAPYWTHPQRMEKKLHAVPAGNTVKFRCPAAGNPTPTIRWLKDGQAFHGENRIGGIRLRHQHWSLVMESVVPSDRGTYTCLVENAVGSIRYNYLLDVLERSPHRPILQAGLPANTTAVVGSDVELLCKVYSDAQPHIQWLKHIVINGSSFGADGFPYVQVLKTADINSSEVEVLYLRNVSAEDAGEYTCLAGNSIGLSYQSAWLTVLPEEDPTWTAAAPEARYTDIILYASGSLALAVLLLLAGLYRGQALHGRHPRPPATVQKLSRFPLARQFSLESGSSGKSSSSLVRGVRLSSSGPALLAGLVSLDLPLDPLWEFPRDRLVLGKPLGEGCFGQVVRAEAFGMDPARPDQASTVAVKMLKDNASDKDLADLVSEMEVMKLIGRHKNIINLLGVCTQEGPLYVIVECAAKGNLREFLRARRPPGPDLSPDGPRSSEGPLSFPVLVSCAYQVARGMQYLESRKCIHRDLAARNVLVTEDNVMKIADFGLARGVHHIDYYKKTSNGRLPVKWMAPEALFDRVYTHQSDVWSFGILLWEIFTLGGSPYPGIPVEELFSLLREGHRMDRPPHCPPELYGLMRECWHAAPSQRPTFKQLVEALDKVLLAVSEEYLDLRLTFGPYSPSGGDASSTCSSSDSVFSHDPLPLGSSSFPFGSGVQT
Sequence of Fibroblast growth factor receptor 2 (Homo sapiens, UniProt P21802) (P21802 whole entry): as the sequence (P21802 whole entry V564F) above, with F564V counted along it

Row | SMILES | GI50 ([1]; BaF3 cells) [nM] | GI50 [2] [nM] | GI50 [3] [nM] | GI50 [4] [nM] | GI50 [5] [nM] | IC50 [6] [nM] | IC50 [7] [nM] | GI50 [8] [nM] | IC50 [9] [nM] | IC50 [10] [nM] | inhibition [11] [%] | inhibition [12] [%] | IC50 [13] [nM] | IC50 [14] [nM] | GI50 [15] [nM] | IC50 [16] [nM] | GI50 [17] [nM] | GI50 ([1]; baf3) [nM] | IC50 [18] [nM]
1 | COc1cc(OC)c(Cl)c(Nc2ncccc2-c2ncnc(Nc3ccc(N4CCC(O)CC4)cc3)n2)c1Cl | > 5000 | 8250 | 117 | 3880 | 40 | 1810 | 6.05 | 1270 | 8.29 | 2160 |  |  |  |  |  |  |  |  | 
2 | COc1cc(OC)c(Cl)c(Nc2ncccc2-c2ncnc(NCCN(C)C)n2)c1Cl | > 5000 | 11200 | 1940 | > 5000 | 4040 |  | 368 | 3570 | 839 |  | < 50 | < 50 |  |  |  |  |  |  | 
3 | COc1cc(OC)c(Cl)c(Nc2ncccc2-c2ncnc(Nc3cnn(CCCN(C)C)c3)n2)c1Cl | 2730 | 510 | 421 | 897 | 5 | 319 | 3.96 | 189 | 1.19 | 1110 |  |  |  |  |  |  |  |  | 
4 | CCN1CCN(c2ccc(Nc3cc(-c4cccnc4Nc4c(Cl)c(OC)cc(OC)c4Cl)ncn3)cc2)CC1 | 3250 | 4290 | 263 | 2000 | 8 | 464 | 6.06 | 479 | 2.86 |  |  |  | 8.55 | 50.3 | 3200 | 1.83 | 3370 |  | 
5 | COc1cc(OC)c(Cl)c(Nc2ncccc2-c2ncnc(Nc3ccc(N4CCOCC4)cc3)n2)c1Cl | > 5000 | 22400 | 1130 | > 5000 | 393 |  | 37.7 | 12200 | 16 |  | < 50 | < 50 |  |  |  |  |  |  | 
6 | COc1cc(OC)c(Cl)c(Nc2ncccc2-c2ncnc(Nc3ccc(N(C)C)cc3)n2)c1Cl | > 5000 | 14800 | 591 | > 5000 | 164 |  | 14.7 | > 50000 | 15 |  | < 50 | < 50 |  |  |  |  |  |  | 
7 | CCN1C(=O)N(c2c(F)c(OC)cc(OC)c2F)Cc2cnc3[nH]c(CN4CCOCC4)cc3c21 [PEMIGATINIB] | > 5000 | 4290 | 132 | 2070 | 5 |  |  | 232 |  |  |  |  |  |  | > 5000 |  | 4500 |  | 
8 | COc1cc(OC)cc(N(CCNC(C)C)c2ccc3ncc(-c4cnn(C)c4)nc3c2)c1 [ERDAFITINIB] |  | 3800 | 48 | 761 | 5 |  |  | 390 |  |  |  |  |  |  | > 5000 |  | 4010 | > 5000 | 
9 | C=CCn1cc(Nc2ncnc(-c3cccnc3Nc3c(Cl)c(OC)cc(OC)c3Cl)n2)cn1 | > 5000 | 991 | 18800 | 1820 | 10 | 1710 | 26 | 341 | 1.41 | 3090 |  |  |  |  |  |  |  |  | 
10 | COc1cc(OC)c(Cl)c(Nc2ncccc2-c2ncnc(Nc3ccccc3)n2)c1Cl | > 5000 | 3620 | 136 | > 5000 | 16 |  | 2.51 | 1420 | 4.58 |  | < 50 | < 50 |  |  |  |  |  |  | 
11 | COc1cc(OC)c(Cl)c(Nc2ncccc2-c2ncnc(Nc3ccc(N4CCN(C(C)=O)CC4)cc3)n2)c1Cl | > 5000 | 6010 | 63 | 3020 | 30 | 1120 | 4.49 | 1500 | 8.05 | 3010 |  |  |  |  |  |  |  |  | 
12 | CCN1CCN(c2cccc(Nc3ncnc(-c4cccnc4Nc4c(Cl)c(OC)cc(OC)c4Cl)n3)c2)CC1 | 3630 | 1110 | 85 | 686 | 18 | 134 | 0.6 | 190 | 0.58 | 578 |  |  | < 0.5 | 101 | 994 | < 0.5 | 1690 |  | 44.3
13 | COc1cc(OC)c(Cl)c(Nc2ncccc2-c2ncnc(Nc3ccc(N4CCOCC4)nc3)n2)c1Cl | > 5000 | 11500 | 781 | > 5000 | 664 | 4060 | 3.09 | 2020 | 8.62 |  | < 50 |  |  |  |  |  |  |  | 
14 | COc1cccc(Nc2ncnc(-c3cccnc3Nc3c(Cl)c(OC)cc(OC)c3Cl)n2)c1 | > 5000 | 4880 | 202 | > 5000 | 30 |  | 6.36 | 895 | 9.81 |  | < 50 | < 50 |  |  |  |  |  |  | 
15 | COc1cc(N2C[C@@H](C)N[C@@H](C)C2)ccc1Nc1ncnc(-c2cccnc2Nc2c(Cl)c(OC)cc(OC)c2Cl)n1 | 2730 | 3330 | 818 | 2710 | 286 |  | 32.9 | 872 | 23.9 | 3560 |  | < 50 |  |  |  |  |  |  | 
16 | COc1cc(OC)c(Cl)c(Nc2ncccc2-c2ncnc(N)n2)c1Cl | > 5000 | 6560 | 753 | > 5000 | 276 |  | 31.4 | 3270 | 11.2 |  | < 50 | < 50 |  |  |  |  |  |  | 
17 | COc1cc(N2CCN(C)CC2)ccc1Nc1ncnc(-c2cccnc2Nc2c(Cl)c(OC)cc(OC)c2Cl)n1 | 2790 | 7260 | 689 | 2130 | 282 | 7750 | 75.3 | 730 | 20.3 | 2640 |  |  |  |  |  |  |  |  | 
18 | COc1cc(OC)c(Cl)c(Nc2ncccc2-c2ncnc(Nc3cnn(C4CCOCC4)c3)n2)c1Cl | > 5000 | 6230 | 105 | 3160 | 5 | 1170 | 13.8 | 1380 | 2.51 | 2770 |  |  |  |  |  |  |  |  | 
19 | COc1cc(OC)c(Cl)c(Nc2ncccc2-c2ncnc(Nc3cnn(C)c3)n2)c1Cl | > 5000 | 2320 | 31 | 731 | 5 | 163 | < 0.5 | 315 | 2.41 | 2840 |  |  |  |  |  |  |  |  | 
